Assay: Stability of the solid form under mass pressure
Assay type: physicochemical
Settings: mass pressure of 1 ton for 3 minutes
Experimental: Form 3 is characterized by needle to ‘rod-like’ morphology. This morphology may be beneficial for flowability properties. In addition, Form 3 is found to be stable under mass pressure of 1 ton for 3 minutes.

stability under mass pressure: stable
SMILES: Cc1cn2nc(-c3cc(=O)n4cc(N5CCNC6(CC6)C5)ccc4n3)cc(C)c2n1 [Form 3, 7-(4,7-diazaspiro[2.5]octan-7-yl)-2-(2,8-dimethylimidazo[1,2-b]pyridazin-6-yl)-4H-pyrido[1,2-a]pyrimidin-4-one]

— patent US12492214B2, “Solid state forms of Risdiplam and process for preparation thereof” (ASSIA CHEMICAL INDUSTRIES LTD., priority 2019, dated 2025)
